Results as given in patent US20090156582A1, “Pyrazole Compound” (priority 2005, published 2009).

These compounds were tested against T1, recombinant GSK3β enzyme (human GSK3β) (Homo sapiens, UniProt P49841) (assay: Measurement of GSK3β inhibitory activity). Conditions: glycogen synthase peptide substrate, Kinase Glo luminescence, read-out: IC50 (concentration of test compound needed for 50% inhibition of luminescent intensity), GSK3β inhibitory activity.
T1 construct: FLAG (N); made in house; host or cells: Sf-21 insect cells, recombinant baculovirus (pFASTBAC1 / BAC-TO-BAC)
T1 sequence (P49841 whole entry): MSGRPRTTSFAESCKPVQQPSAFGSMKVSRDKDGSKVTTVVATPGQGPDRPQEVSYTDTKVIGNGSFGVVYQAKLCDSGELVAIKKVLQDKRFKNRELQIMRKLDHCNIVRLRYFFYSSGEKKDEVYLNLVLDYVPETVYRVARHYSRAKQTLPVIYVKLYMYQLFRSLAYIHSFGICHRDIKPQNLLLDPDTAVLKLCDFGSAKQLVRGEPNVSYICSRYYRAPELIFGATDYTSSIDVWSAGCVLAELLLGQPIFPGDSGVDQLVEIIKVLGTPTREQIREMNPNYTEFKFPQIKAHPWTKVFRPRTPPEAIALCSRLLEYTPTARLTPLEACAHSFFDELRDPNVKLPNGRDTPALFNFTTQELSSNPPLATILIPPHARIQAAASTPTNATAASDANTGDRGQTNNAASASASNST
Assay type: biochemical
Source text: Human GSK3β gene was cloned by a PCR method using a primer set:
prepared using human brain cDNA (Clontech; trade name: QUICK-Clone cDNA) as a template and in reference to the base sequence of GSK3β gene registered in GenBank under Accession Number NM_002093.
PCR was done according to the protocol attached to KOD plus DNA polymerase (Toyo Boseki Kabushiki Kaisha). The obtained PCR product was electrophoresed on agarose gel (1%), and 1.2 kb of DNA fragment including GSK3β gene was collected from the gel and then digested with restriction enzymes EcoR I and Sal I. The restriction enzyme-treated DNA was electrophoresed on agarose gel (1%). The obtained DNA fragment was collected, and ligated to the plasmid pFASTBAC1 (Invitrogen), which had been digested with restriction enzyme EcoR I and Sal I, to produce expression plasmid pFB-GSK3B. The base sequence of insertion fragment was confirmed to find that it corresponded to the objective sequence. In addition, virus stock BAC-GSK3B of recombinant Baculovirus was prepared using BAC-TO-BAC Baculovirus Expression System (Invitrogen).
Sf-21 cells (Invitrogen) were seeded on Sf-900 II SFM medium (Invitrogen)(150 ml) containing 10% fetal calf serum at 1×10^6 cells/ml, and cultured at 27° C. for 24 hr. The virus stock […] obtained above of recombinant Baculovirus was added by 150 μl to the obtained culture medium, and the cells were cultured for another 60 hr. The culture medium was centrifuged (3000 rpm, 10 min) to separate the cells, and the cells were washed once with PBS. The cells were suspended in 10 ml of cell lysis buffer (25 mM HEPES (pH 7.5), 1% Triton X, 130 mM sodium chloride, 1 mM EDTA, 1 mM Dithiothreitol, 25 mM β-glycerophosphate, Protease inhibitor Complete (Boehringer), 1 mM Sodium orthovanadate), treated 4 times using a homogenizer (POLYTRON) at 20000 rpm for 30 sec to disrupt the cells. The disrupted solution of cells was centrifuged (40000 rpm, 45 min.), and GSK3β was purified from the obtained supernatant using Anti-FLAG M2 Affinity Gel (Sigma Ltd.).
10 μl of ATP solution (2.5 μM ATP) was added to the obtained mixture, and the mixture was reacted at room temperature for 30 min. Kinase Glo Reagent (Promega) (50 μl) was added to the reaction solution to stop the reaction. After reaction at room temperature for 10 min, the luminescent intensity was measured using ARVO multilabel counter (PerkinElmer Life Sciences). The concentrations of the test compounds needed for 50% inhibition of luminescent intensity (IC50 value) were calculated by PRISM 3.0 (GraphPad Software).

SMILES	IC50
O=C(/C=C/c1ccccc1)Nc1c[nH]nc1C(=O)NCc1ccco1 [Example 148, N-(2-furylmethyl)-4-{[(2E)-3-phenylprop-2-enoyl]amino}-1H-pyrazole-3-carboxamide]	388 nM
CCCN(CCC)S(=O)(=O)c1ccc(C(=O)Nc2c[nH]nc2C(=O)NC2CCCC2)cc1 [compound 074]	299 nM
CCCN(CCC)S(=O)(=O)c1ccc(C(=O)Nc2c[nH]nc2C(=O)NC(C)C)cc1 [compound 033]	171 nM
CCCN(CCC)S(=O)(=O)c1ccc(C(=O)Nc2c[nH]nc2C(=O)NCCc2ccccc2)cc1 [Example 136, 4-({4-[(dipropylamino)sulfonyl]benzoyl}amino)-N-(2-phenylethyl)-1H-pyrazole-3-carboxamide]	485 nM
O=C(Nc1c[nH]nc1C(=O)NCCc1ccccc1)c1ccc(F)cc1F [Example 134, 4-[(2,4-difluorobenzoyl)amino]-N-(2-phenylethyl)-1H-pyrazole-3-carboxamide]	< 100 nM
O=C(Nc1c[nH]nc1C(=O)NCCc1c[nH]c2ccccc12)c1ccccn1 [Example 348, N-(3-(((2-(1H-indol-3-yl)ethyl)amino)carbonyl)-1H-pyrazol-4-yl)pyridine-2-carboxamide]	< 100 nM
COc1ccc(C(=O)Nc2c[nH]nc2C(=O)NCc2ccccc2)cc1 [Example 112, N-benzyl-4-[(4-methoxybenzoyl)amino]-1H-pyrazole-3-carboxamide]	< 100 nM
O=C(Nc1c[nH]nc1C(=O)NC1CCCC1)c1ccc2[nH]ccc2c1 [compound 077]	< 100 nM
O=C(Cc1c[nH]c2ccccc12)Nc1c[nH]nc1C(=O)NC1CCCC1 [compound 069]	< 100 nM
O=C(Nc1c[nH]nc1C(=O)NCCSc1ccccc1)c1ccccn1 [Example 361, N-(3-(((2-(phenylthio)ethyl)amino)carbonyl)-1H-pyrazol-4-yl)pyridine-2-carboxamide]	< 100 nM
Cc1ccc(C(=O)Nc2c[nH]nc2C(=O)NCCC#N)cc1 [Example 418, N-(2-cyanoethyl)-4-(4-methylbenzoylamino)-1H-pyrazole-3-carboxamide]	< 100 nM
Cc1ccc(C(=O)Nc2c[nH]nc2C(=O)NC2CCCC2)cn1 [Example 364, N-(3-((cyclopentylamino)carbonyl)-1H-pyrazol-4-yl)-6-methylnicotinamide]	< 100 nM
Cc1cccc(C(=O)Nc2c[nH]nc2C(=O)NCCOc2ccc(F)cc2)n1 [Example 428]	< 100 nM
CC(C)NC(=O)c1n[nH]cc1NC(=O)COc1ccccc1 [compound 001, N-isopropyl-4-((phenoxyacetyl)amino)-1H-pyrazole-3-carboxamide]	267 nM
CNC(=O)c1n[nH]cc1NC(=O)c1ccccn1 [Example 346, N-(3-((methylamino)carbonyl)-1H-pyrazol-4-yl)pyridine-2-carboxamide]	< 100 nM
O=C(CNC(=O)c1n[nH]cc1NC(=O)c1ccccn1)c1ccccc1 [Example 359, N-(3-(((2-oxo-2-phenylethyl)amino)carbonyl)-1H-pyrazol-4-yl)pyridine-2-carboxamide]	< 100 nM
O=C(NCCc1ccccc1)c1n[nH]cc1NC(=O)C1CCCCC1 [Example 124, 4-[(cyclohexylcarbonyl)amino]-N-(2-phenylethyl)-1H-pyrazole-3-carboxamide]	< 100 nM
O=C(CC1CCCC1)Nc1c[nH]nc1C(=O)NCc1ccco1 [Example 143, 4-[(cyclopentylacetyl)amino]-N-(2-furylmethyl)-1H-pyrazole-3-carboxamide]	155 nM
O=C(Nc1c[nH]nc1C(=O)NC1CCCCC1)c1ccccn1 [Example 349, N-(3-((cyclohexylamino)carbonyl)-1H-pyrazol-4-yl)pyridine-2-carboxamide]	< 100 nM
CC(C)NC(=O)c1n[nH]cc1NC(=O)Cc1ccc(-c2ccccc2)cc1 [compound 022]	233 nM
O=C(Nc1c[nH]nc1C(=O)NC1CCCC1)c1cnccn1 [compound 079]	< 100 nM
O=C(Nc1c[nH]nc1C(=O)NCc1ccco1)c1ccc(F)cc1F [compound 156]	< 100 nM
CNC(=O)c1n[nH]cc1NC(=O)COc1ccccc1 [compound 004]	< 100 nM
COc1ccc(C(=O)Nc2c[nH]nc2C(=O)NC2CCCC2)cc1 [compound 072]	< 100 nM
COc1ncccc1C(=O)Nc1c[nH]nc1C(=O)NC1CCCC1 [Example 365, N-(3-((cyclopentylamino)carbonyl)-1H-pyrazol-4-yl)-2-methoxynicotinamide]	< 100 nM
O=C(COc1ccccc1)Nc1c[nH]nc1C(=O)NC1CCCC1 [compound 062]	< 100 nM
O=C(Cc1ccc(-c2ccccc2)cc1)Nc1c[nH]nc1C(=O)NC1CCCC1 [compound 065]	234 nM

Second part, the compound after the results:

IC50	SMILES
< 100 nM	O=C(Nc1c[nH]nc1C(=O)NC1Cc2ccccc2C1)c1ccccn1 [Example 339]
< 100 nM	O=C(Nc1c[nH]nc1C(=O)NCC(F)(F)F)c1ccccn1 [Example 360, N-(3-(((2,2,2-trifluoroethyl)amino)carbonyl)-1H-pyrazol-4-yl)pyridine-2-carboxamide]
< 100 nM	O=C(Nc1c[nH]nc1C(=O)NCCc1ccccc1)c1ccc(OC(F)(F)F)cc1 [Example 138, N-(2-phenylethyl)-4-{[4-(trifluoromethoxy)-benzoyl]amino}-1H-pyrazole-3-carboxamide]
< 100 nM	CC(=O)Nc1cccc(C(=O)Nc2c[nH]nc2C(=O)NCC#N)c1 [Example 380, 4-((3-(acetylamino)benzoyl)amino)-N-(cyanomethyl)-1H-pyrazole-3-carboxamide]
< 100 nM	O=C(COc1ccccc1)Nc1c[nH]nc1C(=O)NCc1ccccc1 [Example 101, N-benzyl-4-[(phenoxyacetyl)amino]-1H-pyrazole-3-carboxamide]
< 100 nM	CCOCC(=O)Nc1c[nH]nc1C(=O)NCc1ccco1 [Example 147, 4-[(ethoxyacetyl)amino]-N-(2-furylmethyl)-1H-pyrazole-3-carboxamide]
< 100 nM	CCOCC(=O)Nc1c[nH]nc1C(=O)NCCc1ccccc1 [Example 125, 4-[(ethoxyacetyl)amino]-N-(2-phenylethyl)-1H-pyrazole-3-carboxamide]
< 100 nM	CC(C)OCCNC(=O)c1n[nH]cc1NC(=O)c1ccccc1 [Example 424, 4-(benzoylamino)-N-(2-isopropoxyethyl)-1H-pyrazole-3-carboxamide]
< 100 nM	CC(=O)Nc1cccc(C(=O)Nc2c[nH]nc2C(=O)NCCS(=O)(=O)c2ccccn2)c1 [Example 384, 4-((3-(acetylamino)benzoyl)amino)-N-(2-(pyridin-2-ylsulfonyl)ethyl)-1H-pyrazole-3-carboxamide]
< 100 nM	O=C(Nc1c[nH]nc1C(=O)NCCNc1ccccc1)c1ccccn1 [Example 399, N-(3-(((2-anilinoethyl)amino)carbonyl)-1H-pyrazol-4-yl)pyridine-2-carboxamide]
< 100 nM	CC(C)NC(=O)c1n[nH]cc1NC(=O)c1ccc2[nH]ccc2c1 [compound 036]
< 100 nM	CC(C)NC(=O)c1n[nH]cc1NC(=O)c1ccc(Oc2ccccc2)cc1 [compound 032]
< 100 nM	Cc1ncccc1C(=O)Nc1c[nH]nc1C(=O)NC1CCCC1 [Example 363, N-(3-((cyclopentylamino)carbonyl)-1H-pyrazol-4-yl)-2-methylnicotinamide]
< 100 nM	O=C(COc1ccccc1)Nc1c[nH]nc1C(=O)NCc1ccco1 [Example 145, N-(2-furylmethyl)-4-[(phenoxyacetyl)amino]-1H-pyrazole-3-carboxamide]
< 100 nM	CC(=O)Nc1cccc(C(=O)Nc2c[nH]nc2C(=O)NCCc2ccccc2)c1 [Example 137, 4-{[3-(acetylamino)benzoyl]amino}-N-(2-phenylethyl)-1H-pyrazole-3-carboxamide]
< 100 nM	CC1(C)C2CC[C@@]1(CS(=O)(=O)Nc1c[nH]nc1C(=O)NCCc1ccccc1)C(=O)C2 [compound 305]
< 100 nM	CC(=O)Nc1c[nH]nc1C(=O)NC1CCCC1 [compound 059]
< 100 nM	O=C(Nc1c[nH]nc1C(=O)NCCCOc1ccccc1)c1ccccn1 [Example 391, N-(3-(((3-phenoxypropyl)amino)carbonyl)-1H-pyrazol-4-yl)pyridine-2-carboxamide]
